Data as given in patent publication US6566378B1, “Pesticidal compositions and pesticidal methods” (Sumitomo Chemical Company, Limited, priority 1999, dated 2003).

What was measured:
Type in all cases: in vivo
[1] = test system: Helicoverpa armigera (cotton bollworm); experiment: Test Example 2: test for controlling damage by Helicoverpa armigera on potted cabbage; conditions: spray on potted cabbage, five fourth-instar larvae, damage after 7 days
Description: (§1) An aqueous dilution of the emulsifiable concentrate and an aqueous dilution of an emulsifiable concentrate, obtained by mixing 10 parts of Compound B or Compound C, 40 parts of xylene, 40 parts of dimethylformamide and 10 parts of Solpol 3005X, were mixed together to make a designated concentration, to which a spreading agent (New Rinou manufactured by Nihon Nohyaku) was added to make a volume of the spreading agent 1/3000. The prepared application solution was sprayed over potted cabbage (at the fourth to fifth leaf stage) at a volume of 40ml per pot. The treated plants were air dried, and then five fourth-instar larvae of Helicoverpa armigera (cotton bollworm) were set free. After 7 days, the damage (%) of the plant was observed. Each controlling ratio (%) was calculated by the following equation based on the damage (%) of non-treated plant.
(§2) Controlling ratio (%)=100×(Damage of non-treated plant−Damage of treated plant)/ Damage of non-treated plant

[2] = test system: Aphis gossypii (cotton aphid); experiment: Test Example 4: test for controlling damage by Aphis gossypii on potted cucumber; conditions: spray on potted cucumber, two days after treatment
Description: (§3) Twenty parts of Compound (I) were dissolved in 70 parts of Solvesso 150 (mentioned above), and 6 parts of Toximul 3454F (mentioned above) and 4 parts of Toximul 3455F (mentioned above) were added thereto and mixed well to give an emulsifiable concentrate. An aqueous dilution of the emulsifiable concentrate and an aqueous dilution of an emulsifiable concentrate, obtained by mixing 10 parts of Compound C, 40 parts of xylene, 40 parts of dimethylformamide and 10 parts of Solpol 3005X, were mixed together to make a designated concentration, to which a spreading agent (New Rinou manufactured by Nihon Nohyaku) was added to make a volume of the spreading agent 1/5000.
(§4) About thirty Aphis gossypii (cotton aphid) in various growth stages were set free on potted cucumber (at the first leaf stage), and then the prepared application solution was sprayed over at a volume of 40ml per pot. The treated plants were air dried, covered for preventing escape of the tested aphids and invasion from the outside and set in a greenhouse (25° C.).
(§5) Corrected indices were calculated by the following equation based on prerecorded parasitic number of tested aphids on the tested plant before treatment and the parasitic number after two days from the treatment.

[3] = test system: Helicoverpa armigera (cotton bollworm); experiment: Test Example 1: test for controlling damage by Helicoverpa armigera on potted cabbage; conditions: spray on potted cabbage, two fourth-instar larvae, damage after 6 days
Description: as §1, with “Twenty parts of Compound (I) were dissolved in 70 parts of Solvesso 150 (solvent manufactured by Exxon Chemical), and 6 parts of Toximul 3454F (surfactant manufactured by Stepan) and 4 parts of Toximul 3455F (surfactant manufactured by Stepan) were added thereto and mixed well to give an emulsifiable concentrate. An” for “An”, “a water-soluble formulation” for “an emulsifiable concentrate, obtained by mixing 10 parts”, “A (commercial name: Mospilan water-soluble formulation produced by Kumiai Chemical Industry)” for “B or Compound C, 40 parts of xylene, 40 parts of dimethylformamide and 10 parts of Solpol 3005X,”, “two” for “five”, “6” for “7”
as §2

[4] = test system: Aphis gossypii (cotton aphid); experiment: Test Example 3: test for controlling damage by Aphis gossypii on potted cucumber; conditions: spray on potted cucumber, two days after treatment, index near zero shows high controlling effect
Description: as §3, with “a water-soluble formulation” for “an emulsifiable concentrate, obtained by mixing 10 parts”, “A (commercial name : Mospilan water-soluble formulation produced by Kumiai Chemical Industry)” for “C, 40 parts of xylene, 40 parts of dimethylformamide and 10 parts of Solpol 3005X,”
as §4, §5
Corrected index=100×(T2DAT/Tpre)/(C2DAT/Cpre)
T2DAT: Number of the tested aphids on the plant after two days from the treatment […]

## CN1COCN(Cc2cnc(Cl)s2)/C1=N/[N+](=O)[O-] [Compound C, 3-(2-chlorothiazol-5-ylmethyl)-5-methyl-4-nitroiminoperhydro-1,3,5-oxadiazine, reference compound]
[1]; 100 ppm
  Controlling ratio (%): 0%
[2]; 0.25 ppm
  Corrected index: 44

## C/C(=N\C#N)N(C)Cc1ccc(Cl)nc1 [Compound A, (E)-N^1-[(6-chloro-3-pyridyl)methyl]-N^2-cyano-N^1-methylacetamidine, reference compound]
[3]; 100 ppm
  Controlling ratio (%): 0%
[4]; 0.125 ppm
  Corrected index: 29

## CN/C(=N\[N+](=O)[O-])NCC1CCOC1 (centres unmarked) [Compound B, 1-[(tetrahydro-3-furanyl)methyl]-2-nitro-3-methylguanidine, reference compound]
[1]; 200 ppm
  Controlling ratio (%): 40%

## FC(F)(F)c1ccc(OCCCOc2c(Cl)cc(OCC=C(Cl)Cl)cc2Cl)nc1 [(I), 3,5-dichloro-1-(3,3-dichloro-2-propenyloxy)-4-[3-(5-trifluoromethylpyridin-2-yloxy)propoxy]benzene]
[3]; 2.5 ppm
  Controlling ratio (%): 25%
[3]; 5.0 ppm
  Controlling ratio (%): 50%
[4]; 0.5 ppm
  Corrected index: 83
[1]; 2.5 ppm
  Controlling ratio (%): 20%
[1]; 4 ppm
  Controlling ratio (%): 40%
[2]; 0.5 ppm
  Corrected index: 83
